Source: ChEMBL document CHEMBL1136197, “Anilinopyrazole as selective CDK2 inhibitors: design, synthesis, biological evaluation, and X-ray crystallographic analysis” (Bioorg Med Chem Lett, 2003)

How the values were obtained:
[1] = target: Cyclin-dependent kinase 2 (Homo sapiens, UniProt P24941); experiment: In vitro inhibition of Cyclin-dependent kinase 2 was determined.
[2] = target: Cyclin-dependent kinase 1 (Homo sapiens, UniProt P06493); experiment: Inhibition of Cyclin-dependent kinase 1
Sequence of Cyclin-dependent kinase 1 (P06493 whole entry): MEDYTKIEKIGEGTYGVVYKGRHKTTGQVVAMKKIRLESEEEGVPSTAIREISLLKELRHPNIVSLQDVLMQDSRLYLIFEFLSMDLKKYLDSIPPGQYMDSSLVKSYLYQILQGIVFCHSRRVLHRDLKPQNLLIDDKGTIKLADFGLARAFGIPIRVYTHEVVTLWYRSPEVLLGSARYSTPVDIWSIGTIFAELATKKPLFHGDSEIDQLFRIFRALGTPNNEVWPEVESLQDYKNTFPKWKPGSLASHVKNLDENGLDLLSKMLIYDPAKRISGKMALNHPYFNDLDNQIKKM

SMILES	IC50 [1] [nM]	IC50 [2] [nM]
COc1ccc(-c2cc(Nc3ccc(S(N)(=O)=O)cc3)[nH]n2)cc1F	407	
NS(=O)(=O)c1ccc(Nc2cc(-c3cccc(N4CCOCC4)c3)n[nH]2)cc1	490	
Nc1ccc(-c2cc(Nc3ccc(S(N)(=O)=O)cc3)[nH]n2)cc1	0.34	501
NS(=O)(=O)c1ccc(Nc2cc(-c3cccc(NC(=O)Nc4cc(C(F)(F)F)ccc4F)c3)n[nH]2)cc1	61.6	794
NS(=O)(=O)c1cccc(Nc2cc(-c3ccc(F)cc3)n[nH]2)c1	871	
CS(=O)(=O)Nc1cccc(-c2cc(Nc3ccc(S(N)(=O)=O)cc3)[nH]n2)c1	10.7	501
NS(=O)(=O)c1ccc(Nc2cc(-c3ccc(O)c(F)c3)n[nH]2)cc1 [GW831091X]	12.6	200

Results, then the compound that gave them:

IC50 [1] [nM]	IC50 [2] [nM]	SMILES
23.4		NS(=O)(=O)c1ccc(Nc2cc(-c3cccc(Br)c3)n[nH]2)cc1
17.4		NS(=O)(=O)c1ccc(Nc2cc(-c3ccc(F)cc3)n[nH]2)cc1
0.33		NS(=O)(=O)c1ccc(Nc2cc(-c3ccc([N+](=O)[O-])cc3)n[nH]2)cc1
10.7	501	NS(=O)(=O)c1ccc(Nc2cc(-c3cccc(NS(=O)(=O)c4ccccc4)c3)n[nH]2)cc1
24.5	398	COc1cccc(-c2cc(Nc3ccc(S(N)(=O)=O)cc3)[nH]n2)c1
166		Nc1cccc(-c2cc(Nc3ccc(S(N)(=O)=O)cc3)[nH]n2)c1
10	126	NS(=O)(=O)c1ccc(Nc2cc(-c3ccc(Br)cc3)n[nH]2)cc1
> 2000		CN(C)c1ccc(-c2cc(Nc3ccc(S(N)(=O)=O)cc3)[nH]n2)cc1
602		CS(=O)(=O)Nc1ccc(Nc2cc(-c3cccc(Br)c3)n[nH]2)cc1
9.1	398	NS(=O)(=O)c1ccc(Nc2cc(-c3cccc(O)c3)n[nH]2)cc1 [GW831090X]
